# Assay results reported in patent publication US20020137929A1, “1 - (3-heterocyclylphenyl) isothiourea, -isourea, -guanidine and -amidine herbicidal agents” (Intellectual Property Department, BASF Aktiengesellschaft, priority 1998, published 2002).
# How the values were obtained:
# ABUTH (Velvetleaf) [1] = assay: Preemergence herbicidal evaluation; assay type: in vivo, Abutilon theophrasti; conditions: rated 4-5 weeks after treatment
# How it was run: (§1)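 Preemergence soil application of compound, sprayed in aqueous acetone at rates equivalent to about 0.0156 to 0.500 kg per hectare onto freshly sown cups. Plant response was judged by eye on a 0-9 scale four to five weeks later.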
# ABUTH (Velvetleaf) [2] = assay: Postemergence herbicidal evaluation; assay type: in vivo, Abutilon theophrasti
# How it was run: (§2)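 ~2-wk seedlings; postemergence spray, 40 psi; vehicle 1:1 acetone:water + 0.5% Tween 20; rate ≈0.0156–0.500 kg/ha; greenhouse hold; scored 4–5 wk after treatment, 0–9 scale vs control; repeat tests averaged.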
# SETVI (Foxtail, Green) = assay: Postemergence herbicidal evaluation; assay type: in vivo, Setaria viridis
# How it was run: as §2
# [3] = system: GLXMAW (Soybean, Williams); assay: Preemergence herbicidal evaluation; assay type: in vivo, Glycine max, (L.) Merr. cv Williams; conditions: rated 4-5 weeks after treatment
# How it was run: as §1
# ZEAMX (Corn, Field) [4] = assay: Postemergence herbicidal evaluation; assay type: in vivo, Zea mays
# How it was run: as §2
# [5] = system: TRZAWR (Wheat, Winter, cv Riband); assay: Preemergence herbicidal evaluation; assay type: in vivo, Triticum aestivum; conditions: rated 4-5 weeks after treatment
# How it was run: as §1
# [6] = system: IPOHE (Morningglory, Ivyleaf); assay: Preemergence herbicidal evaluation; assay type: in vivo, Ipomoea hederacea; conditions: rated 4-5 weeks after treatment
# How it was run: as §1
# CYPSE (Flatsedge) = assay: Postemergence weed control under flooded paddy conditions; assay type: in vivo, Cyperus serotinus; conditions: postemergence weeds, 3-4 weeks after treatment
# How it was run: (§3)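 Containers holding 3–5 cm weeds and rice at 1.5–2.5 leaves are flooded to 1.5–3 cm above soil. Compound in 50/50 v/v aqueous/acetone is then added directly to the water, about 0.0313–0.500 kg/ha. Plants are kept in the greenhouse and rated 0–9 visually at 3–4 weeks.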
# ECHCG (Barnyardgrass) [7] = assay: Postemergence herbicidal evaluation; assay type: in vivo, Echinochloa crus-galli
# How it was run: as §2
# CYPIR (Rice Flatsedge) = assay: Postemergence weed control under flooded paddy conditions; assay type: in vivo, Cyperus iria; conditions: postemergence weeds, 3-4 weeks after treatment
# How it was run: as §3
# [8] = system: CHEAL (Lambsquarters, Common); assay: Preemergence herbicidal evaluation; assay type: in vivo, Chenopodium album; conditions: rated 4-5 weeks after treatment
# How it was run: as §1
# CASOB (Sicklepod) = assay: Preemergence herbicidal evaluation; assay type: in vivo, Cassia obtusifolia; conditions: rated 4-5 weeks after treatment
# How it was run: as §1
# ECHCG (Barnyardgrass) [9] = assay: Preemergence herbicidal evaluation; assay type: in vivo, Echinochloa crus-galli; conditions: rated 4-5 weeks after treatment
# How it was run: as §1
# [10] = system: IPOHE (Morningglory, Ivyleaf); assay: Postemergence herbicidal evaluation; assay type: in vivo, Ipomoea hederacea
# How it was run: as §2
# ORYSAT (Rice, Tebonnet) = assay: Postemergence herbicidal evaluation; assay type: in vivo, Oryza sativa, (L.) Tebonnet
# How it was run: as §2
# ZEAMX (Corn, Field) [11] = assay: Preemergence herbicidal evaluation; assay type: in vivo, Zea mays; conditions: rated 4-5 weeks after treatment
# How it was run: as §1
# [12] = system: CHEAL (Lambsquarters, Common); assay: Postemergence herbicidal evaluation; assay type: in vivo, Chenopodium album
# How it was run: as §2
smiles,measurement,setting,value
"CCOC(=O)CN1CC(=O)N(CC(=O)OCC)C1=Nc1cc(-n2c(=O)cc(C(F)(F)F)n(C)c2=O)c(F)cc1Cl [Compound 34, 2-{{2-Chloro-5-[3,6-dihydro-3-methyl-2,6-dioxo-4-(trifluoromethyl)-1(2H)-pyrimidinyl]-4-fluoro-phenyl}imino}-4-oxo-1,3-imidazolidinediacetic acid, diethyl ester]",Preemergence herbicidal rating ABUTH,ABUTH (Velvetleaf) [1]; rate 0.0313 kg/ha,9.0
same,Preemergence herbicidal rating ABUTH,ABUTH (Velvetleaf) [1]; rate 0.0625 kg/ha,9.0
same,Preemergence herbicidal rating ABUTH,ABUTH (Velvetleaf) [1]; rate 0.1250 kg/ha,9.0
same,Preemergence herbicidal rating ABUTH,ABUTH (Velvetleaf) [1]; rate 0.2500 kg/ha,9.0
same,Postemergence herbicidal rating ABUTH,ABUTH (Velvetleaf) [2]; Rate 0.0158 kg/ha,9.0
same,Postemergence herbicidal rating ABUTH,ABUTH (Velvetleaf) [2]; Rate 0.0315 kg/ha,9.0
same,Postemergence herbicidal rating ABUTH,ABUTH (Velvetleaf) [2]; Rate 0.0630 kg/ha,9.0
same,Postemergence herbicidal rating SETVI,"SETVI (Foxtail, Green); Rate 0.0158 kg/ha",0.0
same,Postemergence herbicidal rating SETVI,"SETVI (Foxtail, Green); Rate 0.0315 kg/ha",4.0
same,Postemergence herbicidal rating SETVI,"SETVI (Foxtail, Green); Rate 0.0630 kg/ha",9.0
same,Preemergence herbicidal rating GLXMAW,[3]; rate 0.0313 kg/ha,0.0
same,Preemergence herbicidal rating GLXMAW,[3]; rate 0.0625 kg/ha,0.0
same,Preemergence herbicidal rating GLXMAW,[3]; rate 0.1250 kg/ha,0.0
same,Preemergence herbicidal rating GLXMAW,[3]; rate 0.2500 kg/ha,0.0
same,Postemergence herbicidal rating ZEAMX,"ZEAMX (Corn, Field) [4]; Rate 0.0158 kg/ha",5.5
same,Postemergence herbicidal rating ZEAMX,"ZEAMX (Corn, Field) [4]; Rate 0.0315 kg/ha",6.5
same,Postemergence herbicidal rating ZEAMX,"ZEAMX (Corn, Field) [4]; Rate 0.0630 kg/ha",7.0
same,Preemergence herbicidal rating TRZAWR,[5]; rate 0.0313 kg/ha,0.0
same,Preemergence herbicidal rating TRZAWR,[5]; rate 0.0625 kg/ha,0.0
same,Preemergence herbicidal rating TRZAWR,[5]; rate 0.1250 kg/ha,1.0
same,Preemergence herbicidal rating TRZAWR,[5]; rate 0.2500 kg/ha,5.0
same,Preemergence herbicidal rating IPOHE,[6]; rate 0.0313 kg/ha,0.0
same,Preemergence herbicidal rating IPOHE,[6]; rate 0.0625 kg/ha,3.0
same,Preemergence herbicidal rating IPOHE,[6]; rate 0.1250 kg/ha,3.0
same,Preemergence herbicidal rating IPOHE,[6]; rate 0.2500 kg/ha,9.0
same,Herbicidal rating CYPSE,CYPSE (Flatsedge); rate 0.0313 kg/ha,0.0
same,Herbicidal rating CYPSE,CYPSE (Flatsedge); rate 0.0625 kg/ha,0.0
same,Herbicidal rating CYPSE,CYPSE (Flatsedge); rate 0.1250 kg/ha,0.0
same,Herbicidal rating CYPSE,CYPSE (Flatsedge); rate 0.2500 kg/ha,0.0
same,Postemergence herbicidal rating ECHCG,ECHCG (Barnyardgrass) [7]; Rate 0.0158 kg/ha,0.0
same,Postemergence herbicidal rating ECHCG,ECHCG (Barnyardgrass) [7]; Rate 0.0315 kg/ha,0.0
same,Postemergence herbicidal rating ECHCG,ECHCG (Barnyardgrass) [7]; Rate 0.0630 kg/ha,1.0
same,Herbicidal rating CYPIR,CYPIR (Rice Flatsedge); rate 0.0313 kg/ha,0.0
same,Herbicidal rating CYPIR,CYPIR (Rice Flatsedge); rate 0.0625 kg/ha,0.0
same,Herbicidal rating CYPIR,CYPIR (Rice Flatsedge); rate 0.1250 kg/ha,0.0
same,Herbicidal rating CYPIR,CYPIR (Rice Flatsedge); rate 0.2500 kg/ha,0.0
same,Preemergence herbicidal rating CHEAL,[8]; rate 0.0313 kg/ha,9.0
same,Preemergence herbicidal rating CHEAL,[8]; rate 0.0625 kg/ha,9.0
same,Preemergence herbicidal rating CHEAL,[8]; rate 0.1250 kg/ha,9.0
same,Preemergence herbicidal rating CHEAL,[8]; rate 0.2500 kg/ha,9.0
same,Preemergence herbicidal rating CASOB,CASOB (Sicklepod); rate 0.0313 kg/ha,0.0
same,Preemergence herbicidal rating CASOB,CASOB (Sicklepod); rate 0.0625 kg/ha,0.0
same,Preemergence herbicidal rating CASOB,CASOB (Sicklepod); rate 0.1250 kg/ha,0.0
same,Preemergence herbicidal rating CASOB,CASOB (Sicklepod); rate 0.2500 kg/ha,0.0
same,Preemergence herbicidal rating ECHCG,ECHCG (Barnyardgrass) [9]; rate 0.0313 kg/ha,0.0
same,Preemergence herbicidal rating ECHCG,ECHCG (Barnyardgrass) [9]; rate 0.0625 kg/ha,0.0
same,Preemergence herbicidal rating ECHCG,ECHCG (Barnyardgrass) [9]; rate 0.1250 kg/ha,2.0
same,Preemergence herbicidal rating ECHCG,ECHCG (Barnyardgrass) [9]; rate 0.2500 kg/ha,5.0
same,Postemergence herbicidal rating IPOHE,[10]; Rate 0.0158 kg/ha,9.0
same,Postemergence herbicidal rating IPOHE,[10]; Rate 0.0315 kg/ha,9.0
same,Postemergence herbicidal rating IPOHE,[10]; Rate 0.0630 kg/ha,9.0
same,Postemergence herbicidal rating ORYSAT,"ORYSAT (Rice, Tebonnet); Rate 0.0158 kg/ha",1.0
same,Postemergence herbicidal rating ORYSAT,"ORYSAT (Rice, Tebonnet); Rate 0.0315 kg/ha",2.0
same,Postemergence herbicidal rating ORYSAT,"ORYSAT (Rice, Tebonnet); Rate 0.0630 kg/ha",3.5
same,Preemergence herbicidal rating ZEAMX,"ZEAMX (Corn, Field) [11]; rate 0.0313 kg/ha",0.0
same,Preemergence herbicidal rating ZEAMX,"ZEAMX (Corn, Field) [11]; rate 0.0625 kg/ha",3.0
same,Preemergence herbicidal rating ZEAMX,"ZEAMX (Corn, Field) [11]; rate 0.1250 kg/ha",7.0
same,Preemergence herbicidal rating ZEAMX,"ZEAMX (Corn, Field) [11]; rate 0.2500 kg/ha",9.0
same,Postemergence herbicidal rating CHEAL,[12]; Rate 0.0158 kg/ha,7.0
same,Postemergence herbicidal rating CHEAL,[12]; Rate 0.0315 kg/ha,9.0
same,Postemergence herbicidal rating CHEAL,[12]; Rate 0.0630 kg/ha,9.0
